The values that follow come from paper PMC6934184, “Selective DNA-PKcs inhibition extends the therapeutic index of localized radiotherapy and chemotherapy” (The Journal of Clinical Investigation, 2019).

The target of this assay is T1, TEK (TIE2) R849W (Homo sapiens, UniProt Q02763, R849W).
T1 construct: purchased Thermo Fisher Scientific (Life Technologies) SelectScreen
Briefly: SelectScreen LanthaScreen. Type of assay: binding. As to conditions: read-out: % displacement. A digest of the protocol:
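Percent values come from Thermo SelectScreen profiling of NU5455, combining activity and binding assays. CSF1R was run in Z'LYTE format at Km app ATP, and CAMK1 in Adapta format with ATP listed at 10.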
(In general: Time-resolved FRET reads energy transfer from a long-lived donor to a nearby acceptor.)

T1 sequence (Q02763 23-1124 R849W): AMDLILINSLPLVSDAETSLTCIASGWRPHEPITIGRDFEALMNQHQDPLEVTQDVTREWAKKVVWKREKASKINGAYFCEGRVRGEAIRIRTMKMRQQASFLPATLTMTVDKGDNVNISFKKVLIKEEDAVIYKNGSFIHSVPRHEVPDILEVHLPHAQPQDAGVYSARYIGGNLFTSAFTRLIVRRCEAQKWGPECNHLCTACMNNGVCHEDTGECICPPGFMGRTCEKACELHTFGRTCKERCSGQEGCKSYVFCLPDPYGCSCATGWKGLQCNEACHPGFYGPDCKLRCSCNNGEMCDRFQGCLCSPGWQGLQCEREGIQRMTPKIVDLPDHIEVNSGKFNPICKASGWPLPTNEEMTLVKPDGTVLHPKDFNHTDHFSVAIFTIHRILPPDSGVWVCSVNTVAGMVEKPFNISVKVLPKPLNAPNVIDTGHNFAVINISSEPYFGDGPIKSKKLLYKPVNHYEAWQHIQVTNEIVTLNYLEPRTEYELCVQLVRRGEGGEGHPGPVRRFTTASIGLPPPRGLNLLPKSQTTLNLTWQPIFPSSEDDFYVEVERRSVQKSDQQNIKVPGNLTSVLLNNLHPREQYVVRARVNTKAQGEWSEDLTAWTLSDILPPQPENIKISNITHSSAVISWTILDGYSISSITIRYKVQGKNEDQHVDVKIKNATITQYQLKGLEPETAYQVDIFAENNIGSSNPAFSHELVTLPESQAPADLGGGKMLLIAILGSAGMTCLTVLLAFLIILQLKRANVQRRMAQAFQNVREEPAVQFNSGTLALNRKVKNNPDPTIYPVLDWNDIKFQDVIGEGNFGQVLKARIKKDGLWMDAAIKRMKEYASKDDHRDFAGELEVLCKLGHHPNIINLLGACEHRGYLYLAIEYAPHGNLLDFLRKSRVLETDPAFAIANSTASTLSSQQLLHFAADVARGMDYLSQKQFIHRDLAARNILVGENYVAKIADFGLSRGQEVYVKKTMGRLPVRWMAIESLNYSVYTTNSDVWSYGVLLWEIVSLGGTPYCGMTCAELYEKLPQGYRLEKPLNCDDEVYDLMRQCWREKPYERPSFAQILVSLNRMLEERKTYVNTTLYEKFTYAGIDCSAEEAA

Consider `CN(C(=O)CN1CCOCC1)c1ccc2sc3c(-c4cccc5c(=O)cc(N6CC7CCC(C6)O7)oc45)cccc3c2c1` [NU5455], for which the inhibition at 1 µM is -3.3%.
